This is an account of results in patent US20160113958A1, “MODULATORS OF ADP-DEPENDENT GLUCOKINASE (ADPGK) AND GLYCEROL-3-PHOSPHATE DEHYDROGENASE (GPD2) FOR THERAPY” (DEUTSCHES KREBSFORSCHUNGSZENTRUM STIFTUNG DES ÖFFENTLICHEN …, priority 2011, published 2016).

In test [1] the test system is in vitro expanded peripheral human T cells. The experiment in a line: Determination of ROS generation (activation-induced oxidative signal, H2DCF-DA, FACS). Format: cell-based. Particulars: for oxidative signal generation (T cell activation-induced mitochondrial ROS) with respiratory chain inhibitors: 15 min pre-treatment, plate-bound anti-CD3 (30 μg/ml) or PMA (10 ng/ml) 1 h (FIG. 9A). The method, then: (§1) T cell line Jurkat J16-145 cells, J16 sub-clone (2), were cultured in RPMI 1640 (+L-glutamine), 10% foetal calf serum (FCS). Gaussia luciferase NF-κB reporter J16-145 cells were cultured in IMDM, 10% FCS. Freshly isolated (“resting”) or phytohemagglutinin (PHA)-activated and 6-8 days in vitro expanded (“pre-activated”) peripheral human T cells were cultured at initial concentration of 2×10^6 cells/ml in RPMI 1640 (+L-glutamine), 10% FCS. For pre-activation-induced expansion, “resting” T cells were treated with 1 μg/ml PHA for 16 h, washed and subsequently cultured in the presence of 25 U/ml IL-2 for 6-8 days. These cells are referred to as “T cells” in the text, if not stated differently.
Cells were stained with H2DCF-DA (5 μM) for 30 min. Next, cells were divided and 1 h stimulated with either plate-bound anti-CD3 antibody (30 μg/ml) or PMA (10 ng/ml). Treatment was terminated by ice-cold PBS and ROS generation was determined by FACS analysis (Canto II, Becton Dickinson). ROS generation was quantified as the increase in mean fluorescence intensity (MFI), calculated according to the following formula: increase in MFI (%)=[(MFIstimulated−MFIunstimulated)/MFIunstimulated]×100 (3).

Test [2] deals with ETC complexes I, II and III. The test can be described thus: Steady-state activity of ETC enzymatic complexes in digitonin-permeabilized T cells. It counts as biochemical, human. Particulars: T cells pre-treated (20 min) with BIM, TCR triggering. As to the method: In vitro expanded T cells (at least 0.5×10^8) were snap-frozen in liquid nitrogen and subsequently incubated on ice in ETC buffer (20 mM Tris-HCl pH 7.4, 250 mM sucrose, 50 mM KCl, 5 mM MgCl2) with 0.015% digitonin for 30 min according to Chretien et al. (4) with minor modifications. Afterwards, cells were washed twice with ice-cold ETC buffer and subjected to assays.
Steady-state activity of ETC enzymatic complexes was determined as described (5, 6) using a computer-tunable spectrophotometer (Spectramax Plus Microplate Reader, Molecular Devices; Sunny Vale, Calif., USA) operating in the dual wavelength mode; samples were analyzed in temperature-controlled 96-well plates in a final volume of 300 μL. The addition of standard respiratory chain inhibitors was used to ascertain the specificity of the enzymatic assays. All enzymatic activities were normalized to protein concentration. For stimulated T cells ETC enzyme activities were measured after snap-freezing and digitonin-permeabilization (as described previously). To study electron flow from complex I or complex II to complex III digitonin-permeabilized cells or mitochondrial fractions were incubated with NADH or succinate and the reduction of cytochrome c in the presence of NaCN was measured.

For the next test, the system named is GPD2. The test can be described thus: GPD2 activity in mitochondrial fractions of T cells. It counts as biochemical, human. As to the method: (§2) Cells were disrupted using a 27×½″ needle in ice-cold ETC buffer and the homogenates were centrifuged at 600×g, 4° C. for 10 min. For preparation of the “high g” mitochondrial (pellet) as well cytosolic (supernatant) fraction the 600×g supernatant was centrifuged at 11.000×g, 4° C. for 20 min. For preparation of the “mitochondria-enriched” fractions, the 600×g supernatant was centrifuged 10 min, 4° C. at 3,500×g (pellet). Subsequently, for preparation of the “ER-enriched fraction” the 3,500×g supernatant was centrifuged at 11.000×g, 4° C. for 20 min. The mouse heart muscle mitochondria were prepared according to the procedure for “mitochondria-enriched” fraction as described (5).
Glycerol-3-phosphate-dehydrogenase (GPD2) activity was measured as cytochrome c reduction in ETC buffer containing 5 mM glycerol 3-phosphate, 2 mM NaCN, and 60 μM cytochrome c.

A further test deals with T1, ADPGK (Homo sapiens, UniProt Q9BRR6).
T1 construct: endogenous in cells; host or cells: in vitro expanded human T cells or Jurkat T cells; "high g" mitochondrial or "ER-enriched" fraction
The experiment in a line: ADP-dependent glucokinase (ADPGK) activity assay. Format: biochemical. Particulars: for ADPGK activity in mitochondria-enriched membrane fractions ("high g" fractions): human T cells or Jurkat T cells, 1 h stimulation. The method, then: as §2
ADPGK activity was assayed as NADP reduction in ETC buffer containing 1 mM ADP, 1 mM glucose, 0.5 mM NADP, 5 μM diadenosine pentaphosphate, and 0.05 U/ml glucose 6-phosphate dehydrogenase at pH 6.0 and 37° C. or 42° C. Assay was essentially based on the one previously described for the recombinant mouse ADPGK protein (9).

Test [3] deals with mitochondria-associated HK activity. The test can be described thus: Respiration-coupled hexokinase (HK)-like activity in T cell mitochondria ("high g" fraction). It counts as biochemical, human.
The test system of the next test is Jurkat T cells. The test can be described thus: Determination of ROS generation (activation-induced oxidative signal, H2DCF-DA, FACS). It counts as cell-based, human. Particulars: 30 min pre-incubation with DOG/pyruvate, compared to equimolar glucose (Glc)/pyruvate. As to the method: as §1
Cells were stained with H2DCF-DA (5 μM) for 30 min. Next, cells were divided and 1 h stimulated with either plate-bound anti-CD3 antibody (30 μg/ml) or PMA (10 ng/ml). Treatment was terminated by ice-cold PBS and ROS generation was determined by FACS analysis (Canto II, Becton Dickinson). ROS generation was quantified as the increase in mean fluorescence intensity (MFI), calculated according to the following formula: increase in MFI (%)=[(MFIstimulated−MFIunstimulated)/MFIunstimulated]×100 (3). […]

For another test, the system named is enolase (ENO). The test can be described thus: Enolase (ENO) reverse reaction activity. It counts as biochemical, human. The method, then:
Enolase (ENO) forward reaction was measured as NADH oxidation in ETC buffer containing 1 mM 2-phosphoglycerate, 1 mM ADP, 0.5 mM NADH, 2 U/ml LDH, 2 U/ml PK. The reverse reaction was assayed in ETC buffer containing 1 mM phosphoenolpyruvate, 1 mM ATP, 0.5 mM NADH, 2 U/ml LDH, 2 U/ml PK.

The test system of test [4] is in vitro expanded T cells. The test can be described thus: Oxygen electrode, mitochondrial respiratory rate. It counts as cell-based. As to conditions: intact human T cells, soluble anti-CD3 antibody or PMA. As to the method:
Mitochondrial respiratory rate was measured according to a previously described protocol (7) using computer-supported high-resolution Oroboros 1 oxygraph system (Paar, Graz, Austria). In vitro expanded T cells (5-10×10^7 cells) were placed in each electrode chamber and activated with soluble anti-CD3 antibody (10 μg/m, cross-linked with GAM, 2 μg/ml) or PMA (10 ng/ml). The experimental set-up was as previously described (8). “Mitochondrial respiratory rate” was calculated by subtracting “Background oxygen consumption rate” (recorded with a reference electrode in a presence of 5 μM oligomycin) from “Total oxygen consumption rate” (as described in (8)).

The test system of the next test is T cells. The test can be described thus: Glucose uptake (D-[3-3H] glucose). As to conditions: after stimulation with anti-CD3 antibody or PMA. It counts as cell-based, human. The method, then:
Upon treatment, cells (1-2×10^7 cells) were washed and suspended in Krebs-Ringer buffer. Subsequently, cells were incubated with 1 μCi/ml D-[3-^3H] glucose for 10 min at 37° C. Afterwards, cells were washed twice with ice-cold Krebs-Ringer buffer and intracellular D-[3-^3H] glucose was detected using a scintillation counter (LS 6500 Liquid Scintillation Counter Beckman Coulter; Brea, Calif., USA).

The subject of test [5] is in vitro expanded human T cells. The test can be described thus: Ubiquinol/ubiquinone content determination (HPLC). It counts as cell-based. Particulars: PMA (10 ng/ml) 1 h, extracts from snap-frozen activated T cells. As to the method: At least 5×10^7 in vitro expanded human T cells were treated with plate-bound anti-CD3 antibody (30 μg/ml) or PMA (10 ng/ml) for 1 h. Cells were washed, pelleted, snap-frozen in liquid nitrogen and placed on dry ice. Ubiquinol/-on extraction was performed by addition of ice-cold 200 μl hexan: isopropanol (2:1) and subsequent centrifugation (15.000 g) for 5 min at 0° C. Next, 150 μl of the supernatant was immediately injected and separated by RP-HPLC. HPLC separation and identification conditions were based on previously published methods (10, 11). […] Identification was based on UV/VIS-DAD absorption spectra and facilitated by redox response detected with volt-amperometric detector. Quantitation was performed based on UV-VIS chromatograms at wavelengths: 275 nm (ubiquinone) and 289 nm (ubiquinol). Selected qualitative and quantitative results of UV-VIS/DAD analysis were confirmed by HPLC-MS/ESI (Agilent; Santa Clara, Calif., USA).

Test [6] deals with in vitro expanded peripheral human T cells. As to conditions: previous work (ref. 3); cited from earlier work.
A further test deals with mitochondrial AK. The test can be described thus: Adenylate kinase (AK) activity assay. It counts as biochemical. Particulars: 5 μM. As to the method:
AK activity was assayed as NADP reduction in ETC buffer containing 1 mM ADP, 1 mM glucose, 0.5 mM NADP, 1 U/mL HK and 0.05 U/ml glucose 6-phosphate dehydrogenase at pH 7.5 and 37° C.

Like-named read-outs stand apart in the source and are kept apart here.

T1 sequence (Q9BRR6 23-497): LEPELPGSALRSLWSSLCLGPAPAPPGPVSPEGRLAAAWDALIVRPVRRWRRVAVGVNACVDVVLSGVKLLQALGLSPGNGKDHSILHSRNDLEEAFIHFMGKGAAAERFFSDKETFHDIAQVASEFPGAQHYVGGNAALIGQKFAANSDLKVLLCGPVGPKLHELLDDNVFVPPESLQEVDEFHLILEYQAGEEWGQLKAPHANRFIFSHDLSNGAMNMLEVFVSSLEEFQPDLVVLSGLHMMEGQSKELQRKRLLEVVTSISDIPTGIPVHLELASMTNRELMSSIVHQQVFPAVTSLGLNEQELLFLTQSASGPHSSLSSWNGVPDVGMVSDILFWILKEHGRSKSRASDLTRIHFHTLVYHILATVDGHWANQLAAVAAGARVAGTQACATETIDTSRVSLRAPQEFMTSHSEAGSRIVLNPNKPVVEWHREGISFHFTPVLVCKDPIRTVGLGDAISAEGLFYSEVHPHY

`CN(C)CCCn1cc(C2=C(c3c[nH]c4ccccc34)C(=O)NC2=O)c2ccccc21` [BIM, bis-indolyl-maleimidate I]: the “TCR-induced mitochondrial ROS generation” value in [1] (20 min pre-incubation, 1 h plate-bound anti-CD3 antibody (30 μg/ml)) is “inhibitor”. Further, in [2], the “activation-induced changes of enzymatic activities of complexes I, II and III” value was “significantly blocked”. The “TCR-induced GPD2 activation” value in the test on GPD2 (mitochondrial fractions of activated T cells, BIM pre-treatment) was “significantly blocked”. The “T cell activation-induced enhancement of the ADPGK-like enzymatic activity” value on ADPGK ("high g" fractions, BIM pre-treatment (20 min)) was “completely abolished”.

In the case of `N#CC(C#N)=NNc1cccc(Cl)c1` [CCCP], the “sensitivity of the enhanced HK-like enzymatic activity” value in [3] (CCCP (0.125 μM), NaCN (10 mM)) is recorded as “insensitivity”.

Regarding `O=CC[C@@H](O)[C@H](O)[C@H](O)CO` [DOG, 2-deoxy-glucose], the “activation-induced ROS” value in test [1] (expanded human T cells, 30 min pre-incubation with DOG/pyruvate, compared to equimolar glucose (Glc)/pyruvate) is given as “lower amounts”; in the test with Jurkat T cells it was “lower amounts”.

`[F-].[Na+]` [NaF]: the “reverse ENO activity” value with enolase (ENO) (T cells) is listed as “blocked”.

For the compound `[N-]=[N+]=[N-].[Na+]` [NaN3], in test [1], the “oxidative signal generation (T cell activation-induced mitochondrial ROS) with respiratory chain inhibitors” value is on record as “not blocked”.

Take `CCCCCCCCCCCCCC(=O)O[C@@H]1[C@@H](C)[C@@]2(O)[C@@H](C=C(CO)C[C@]3(O)C(=O)C(C)=C[C@@H]23)[C@@H]2C(C)(C)[C@]12OC(C)=O` [PMA, phorbol 12-myristate 13-acetate]: the GPD2 activity result in the test on GPD2 (mitochondria-enriched membrane fractions of pre-activated human T cells, PMA (10 ng/ml) 1 h) is recorded as “moderately up-regulated”. Also, the “ADPGK activity in mitochondria-enriched membrane fractions ("high g" fractions)” value on ADPGK is given as “Comparable up-regulation”. Also, in test [4], the mitochondrial oxygen consumption entry was “significant inhibition”. For the same compound, in the test on T cells, the “cellular uptake of radioactively labeled glucose” value is reported as “rapidly rose”. The “rise in the content of ubiquinol over ubiquinone” value in [5] is 57%.

In the case of `O=C(CC(=O)C(F)(F)F)c1cccs1` [TTFA], the “oxidative signal generation (T cell activation-induced mitochondrial ROS) with respiratory chain inhibitors” value in [1] was “moderate inhibition”.

With `CN(C)C(=N)N=C(N)N` [metformin], in test [1], the “oxidative signal generation (T cell activation-induced mitochondrial ROS) with respiratory chain inhibitors” value is on record as “inhibition”. Also, in [6], the “generation of the oxidative signal” value was “blocked”.

For the compound `CO/C(=C/C(N)=O)[C@H](C)[C@H](/C=C/c1csc(-c2csc([C@@H](C)/C=C/C=C/C(C)C)n2)n1)OC` [myxothiazol], the “oxidative signal generation (T cell activation-induced mitochondrial ROS) with respiratory chain inhibitors” value in [1] is given as “not”.

As to `CC[C@H]1/C=C/C=C/C[C@@H](C)[C@H](O)[C@@](C)(O)C(=O)[C@@H](C)[C@H](O)[C@@H](C)C(=O)[C@@H](C)[C@H](O)[C@@H](C)/C=C/C(=O)O[C@@H]2[C@H](C)[C@H](CC1)O[C@]1(CC[C@H](C)[C@H](C[C@@H](C)O)O1)[C@H]2C` [oligomycin], the “oxidative signal generation (T cell activation-induced mitochondrial ROS) with respiratory chain inhibitors” value in [1] was “not blocked”.

Consider `C=C(C)[C@H]1Cc2c(ccc3c2O[C@@H]2COc4cc(OC)c(OC)cc4[C@@H]2C3=O)O1` [rotenone], for which the “oxidative signal generation (T cell activation-induced mitochondrial ROS) with respiratory chain inhibitors” value in [1] is reported as “inhibition”.

Regarding NaVO3, in the test with enolase (ENO), the “TCR-induced increase of reverse ENO activity” value is given as “abolished” and the “reverse ENO activity” value is on record as “reduced the activity but did not block it”.

“anti-CD3 antibody: Monoclonal mouse antibody (OKT3) against human CD3, agonistic, used for TCR triggering”: the “ADPGK activity in mitochondria-enriched membrane fractions ("high g" fractions)” value with ADPGK is “enhanced”. Besides, in [4], the mitochondrial oxygen consumption result is “significant inhibition”. The “cellular uptake of radioactively labeled glucose” value with T cells was “rapidly rose”.

Consider antimycin, for which the “oxidative signal generation (T cell activation-induced mitochondrial ROS) with respiratory chain inhibitors” value in test [1] was “increased”.

As to diadenosine pentaphosphate [Ap5A], the “inhibition of TCR-induced HK-like activity” value in test [3] (5 μM, presence of ADP and succinate) was “up to 40%”. Also, the “activation-induced rise in HK-like activity” value in [3] (Ap5A 5 μM) is “unaffected”. The “inhibition of mitochondrial AK” value in the test on mitochondrial AK is reported as 80-90%.
